{
  "source": "patent US11291812B2",
  "about": "“Sinus delivery of sustained release therapeutics” (Intersect ENT, Inc., priority 2003, dated 2022)",
  "origin": "cited, not measured here",
  "tested_on": "sinusitis",
  "conditions": "ampicillin delivered from a poly(lactic-co-glycolic)acid (PLGA) film placed in rabbit maxillary sinus",
  "data": [
    {"smiles": "CC1(C)S[C@@H]2[C@H](NC(=O)[C@H](N)c3ccccc3)C(=O)N2[C@H]1C(=O)O", "note": "[ampicillin]", "values": [
      {"measurement": "clinical signs of sinusitis", "result": "improved"}
    ]}
  ]
}
